Earlier results in patent EP0707853B1, “Muscle relaxant pharmaceutical compositions” (priority 1994, dated 1996).

Settings: for pI: isoionic point; for pI / pKa: Handbook of Chemistry and Physics, ed. 69, page C 107; for pKa: pKa values for basic groups; for isoionic point (pI): value given in the example text as the pH the solution is brought to

Row | SMILES | pI | pKa | isoionic point (pI)
1 | C[C@H](N)C(=O)O [alanine] | 6,1 | 9,87 | 
2 | CC(C)[C@H](N)C(=O)O [valine] | 6,0 | 9,72 | 
3 | N[C@@H](CO)C(=O)O [serine] | 5,68 | 9,15 | 5.67
4 | NCC(=O)O [glycine] | 6,06 |  | 6.1
5 | O=C(O)[C@@H]1CCCN1 [proline] | 6,3 | 9,87 | 
6 | CSCC[C@H](N)C(=O)O [methionine] | 5,91 | 10,6 | 
7 | O=C(O)[C@@H]1C[C@@H](O)CN1 [hydroxyproline] | 5,82 | 9,73 | 
